Assay results as given in ChEMBL document CHEMBL1629460, “Image-based high-throughput drug screening targeting the intracellular stage of Trypanosoma cruzi, the agent of Chagas' disease” (Antimicrob Agents Chemother, 2010).

Tests used:
[1] = Cytotoxicity against BESM cells after 88 hrs by HTS assay; type: ADME, cell-based; details: Bos taurus
[2] = test system: Trypanosoma cruzi; experiment: Antitrypanosomal activity against Trypanosoma cruzi amastigotes infected in BESM cells measured after 88 hrs postinfection by HTS assay; type: functional, organism-based
[3] = Selectivity window, ratio of EC50 for BESM cells to EC50 for Trypanosoma cruzi amastigotes infected in BESM cells; set-up: reference not given here

Row | SMILES | EC50 [1] [µM] | EC50 [2] [µM] | Ratio EC50 [3]
1 | CN1C[C@H](CNC(=O)OCc2ccccc2)C[C@@H]2c3cccc4c3c(cn4C)C[C@H]21 [METERGOLINE] | 18 | 4 | 4.5
2 | Cc1c(O)cccc1C(=O)N[C@@H](CSc1ccccc1)[C@H](O)CN1C[C@H]2CCCC[C@H]2C[C@H]1C(=O)NC(C)(C)C | 32 | 12 | 2.7
3 | CN(C)C(=O)C(CCN1CCC(O)(c2ccc(Cl)cc2)CC1)(c1ccccc1)c1ccccc1 [LOPERAMIDE] | 12 | 3 | 4
4 | Cc1ccc(/N=C/N(C)/C=N/c2ccc(C)cc2C)c(C)c1 [AMITRAZ] | 33 | 16 | 2.1
5 | Nc1c2c(nc3ccccc13)CCCC2 [TACRINE] | > 50 | 24 | >2.1
6 | CC[C@H](C)[C@H]1O[C@]2(C=C[C@@H]1C)C[C@@H]1C[C@@H](C/C=C(\C)[C@@H](O[C@H]3C[C@H](OC)[C@@H](O[C@H]4C[C@H](OC)[C@@H](O)[C@H](C)O4)[C@H](C)O3)[C@@H](C)/C=C/C=C3\CO[C@@H]4[C@H](O)C(C)=C[C@@H](C(=O)O1)[C@]34O)O2.CO[C@H]1C[C@H](O[C@H]2[C@H](C)O[C@@H](O[C@@H]3/C(C)=C/C[C@@H]4C[C@@H](C[C@]5(C=C[C@H](C)[C@@H](C(C)C)O5)O4)OC(=O)[C@@H]4C=C(C)[C@@H](O)[C@H]5OC/C(=C\C=C\[C@@H]3C)[C@]54O)C[C@@H]2OC)O[C@@H](C)[C@@H]1O [ABAMECTIN] | 12 | 4 | 3
7 | COc1cc(N)[nH]c2nc(-c3ccc(F)cc3)c(-c3ccncc3)c1-2 | > 50 | 5 | >10
8 | O=C(Nc1ccc(Cl)c(Cl)c1)c1cc(Cl)cc(Cl)c1O [3,3',4',5-TETRACHLOROSALICYLANILIDE] | 26 | 8 | 3.3
9 | CC(C)[C@H]1C(=O)N2CCC[C@H]2[C@]2(O)O[C@](NC(=O)[C@@H]3C=C4c5cccc6[nH]cc(c56)C[C@H]4N(C)C3)(C(C)C)C(=O)N12 [ERGOCORNINE] | 43 | 18 | 2.4
10 | COc1ccccc1N1CCN(CC(O)COc2cccc3ccccc23)CC1 (stereo not given) [NAFTOPIDIL] | 18 | 11 | 1.6
11 | CC(C)N1CCN(c2ccc(OCC3COC(Cn4cncn4)(c4ccc(Cl)cc4Cl)O3)cc2)CC1 (stereo not given) [TERCONAZOLE] | 24 | < 0.4 | >60
12 | C[C@@H]1C[C@@H]([C@H](O)CC2CC(=O)NC(=O)C2)C(=O)[C@@H](C)C1 [CYCLOHEXIMIDE] | > 50 | < 0.4 | >125
13 | CC(C)[C@@]1(NC(=O)[C@@H]2C[C@@H]3c4cccc5[nH]cc(c45)C[C@H]3N(C)C2)O[C@@]2(O)[C@@H]3CCCN3C(=O)[C@H](Cc3ccccc3)N2C1=O.CS(=O)(=O)O [DIHYDROERGOCRISTINE MESYLATE] | 47 | 5 | 9.4
14 | O=C1OCCN1/N=C/c1ccc([N+](=O)[O-])o1 [FURAZOLIDONE] | > 50 | < 0.4 | >125
15 | COc1c(C)c2c(c(O)c1C/C=C(\C)CCC(=O)OCCN1CCOCC1)C(=O)OC2 [MYCOPHENOLATE MOFETIL] | > 50 | 7 | >7.1
16 | OCCN1CCN(CCCN2c3ccccc3Sc3ccc(C(F)(F)F)cc32)CC1 [FLUPHENAZINE] | 21 | 4 | 5.3
17 | O=C(N/N=C/c1ccc([N+](=O)[O-])o1)c1cc([N+](=O)[O-])cc([N+](=O)[O-])c1O [NIFURSOL] | > 50 | 15 | >3.3
18 | NC(=O)N/N=C/c1ccc([N+](=O)[O-])o1 [NITROFURAZONE] | > 50 | 8 | >6.3
19 | c1ccc2c(c1)Nc1ccccc1S2 [PHENOTHIAZINE] | 26 | 6 | 4.3
20 | CCOC(=O)N1CCC(=C2c3ccc(Cl)cc3CCc3cccnc32)CC1 [LORATADINE] | 17 | 9 | 1.9
21 | COc1cc2nc(N3CCN(C(=O)c4ccco4)CC3)nc(N)c2cc1OC [PRAZOSIN] | 16 | 12 | 1.3
22 | COc1ccccc1OCCNCC(O)COc1cccc2[nH]c3ccccc3c12 (stereo not given) [CARVEDILOL] | 31 | 8 | 3.9
23 | CN1[C@@H]2CC[C@H]1C[C@@H](OC(c1ccccc1)c1ccccc1)C2 [BENZTROPINE] | 46 | 17 | 2.7
24 | CC(=O)O[C@]1(C(C)=O)CC[C@H]2[C@@H]3C=C(Cl)C4=CC(=O)[C@@H]5C[C@@H]5[C@]4(C)[C@H]3CC[C@@]21C [CYPROTERONE ACETATE] | > 50 | 32 | >1.6
25 | Cc1c(C)c2c(c(C)c1O)CCC(C)(CN1CCN(c3cc(N4CCCC4)nc(N4CCCC4)n3)CC1)O2 (stereo not given) | > 50 | 17 | >2.9

Row | SMILES | EC50 [1] [µM] | EC50 [2] [µM] | Ratio EC50 [3]
26 | CN(C)CCCN1c2ccccc2Sc2ccccc21 [PROMAZINE] | 33 | 13 | 2.5
27 | CCN(CC)CCOCCC1=CCC2CC1C2(C)C (stereo not given) [MYRTECAINE] | 24 | 14 | 1.7
28 | CC(=O)O[C@@]12CO[C@@H]1C[C@H](O)[C@@]1(C)C(=O)[C@H](O)C3=C(C)[C@@H](OC(=O)[C@H](O)[C@@H](NC(=O)OC(C)(C)C)c4ccccc4)C[C@@](O)([C@@H](OC(=O)c4ccccc4)[C@H]21)C3(C)C.O.O.O [DOCETAXEL] | 44 | < 0.8 | >56
29 | O=C(c1ccc(OCCN2CCCCC2)cc1)c1c(-c2ccc(O)cc2)sc2cc(O)ccc12 [RALOXIFENE] | 22 | 10 | 2.2
30 | COc1ccc(CN2CCN(C(c3ccc(F)cc3)c3ccc(F)cc3)CC2)c(OC)c1OC [LOMERIZINE] | 22 | 9 | 2.4
31 | C[C@H]([C@](O)(Cn1cncn1)c1ccc(F)cc1F)S(C)(=O)=O [GENACONAZOLE] | > 50 | 18 | >2.8
32 | c1ccc(Cn2ccnc2)cc1 [BENZYLIMIDAZOLE] | > 50 | 35 | >1.4
33 | OCCN1CCN(CCCN2c3ccccc3Sc3ccc(Cl)cc32)CC1 [PERPHENAZINE] | 13 | 5 | 2.6
34 | C=CCN1CC[C@]23c4c5ccc(O)c4O[C@H]2/C(=N/N=C2\CC[C@@]4(O)[C@H]6Cc7ccc(O)c8c7[C@@]4(CCN6CC=C)[C@H]2O8)CC[C@@]3(O)[C@H]1C5 [NALOXONAZINE] | 16 | 17 | 0.9
35 | CC(C)CC(N(C)C)C1(c2ccc(Cl)cc2)CCC1 (stereo not given) [SIBUTRAMINE] | 10 | 8 | 1.3
36 | C=C(C)[C@H]1CN[C@H](C(=O)O)[C@H]1CC(=O)O [KAINIC ACID] | 13 | 3 | 4.3
37 | CNCCC(Oc1ccc(C(F)(F)F)cc1)c1ccccc1 (stereo not given) [FLUOXETINE] | 16 | 7 | 2.3
38 | CN1CCCN(C(c2ccccc2)c2ccc(Cl)cc2)CC1 (stereo not given) [HOMOCHLORCYCLIZINE] | 13 | 12 | 1.1
39 | C[C@@H]1C[C@H]2[C@@H]3CCC4=CC(=O)C=C[C@]4(C)C3=CC[C@]2(C)[C@H]1C(=O)CN1CCN(c2cc(N3CCCC3)nc(N3CCCC3)n2)CC1 [TIRILAZAD] | > 50 | 28 | >1.8
40 | Cc1cc2c(OCC(CNC(C)(C)C)OC(=O)c3ccccc3)cccc2[nH]1 (stereo not given) [BOPINDOLOL] | > 50 | 40 | >1.3
41 | CN(C)CCC=C1c2ccccc2CCc2ccccc21 [AMITRIPTYLINE] | 23 | 12 | 1.9
42 | CCC1=C[C@@H]2CN(C1)Cc1c([nH]c3ccccc13)[C@@](C(=O)OC)(c1cc3c(cc1OC)N(C)[C@H]1[C@@](O)(C(=O)OC)[C@H](OC(C)=O)[C@]4(CC)C=CCN5CC[C@]31[C@@H]54)C2 [VINORELBINE] | > 50 | 10 | >5
43 | Cc1ccc(NC(=O)c2ccc(CN3CCN(C)CC3)cc2)cc1Nc1nccc(-c2cccnc2)n1 [IMATINIB] | 32 | 9 | 3.6
44 | CCCCCCCCCCCCC/C=C/[C@@H](O)[C@H](CO)NC(=O)CCCCCCC | 11 | 13 | 0.8
45 | C#C[C@]1(OC(C)=O)CC[C@H]2[C@@H]3CCC4=CC(=O)CC[C@@H]4[C@H]3CC[C@@]21C [NORETHINDRONE ACETATE] | 28 | 17 | 1.6
46 | CCC(=O)O[C@]1(C(=O)CCl)[C@@H](C)C[C@H]2[C@@H]3CCC4=CC(=O)C=C[C@]4(C)[C@@]3(F)[C@@H](O)C[C@@]21C [CLOBETASOL PROPIONATE] | 41 | 25 | 1.6
47 | CCCCOc1ccc(C(=O)CCN2CCCCC2)cc1.Cl [DYCLONINE HYDROCHLORIDE] | 36 | 15 | 2.4
48 | O=C(CCCN1CCC(O)(c2ccc(Cl)cc2)CC1)c1ccc(F)cc1 [HALOPERIDOL] | 33 | 7 | 4.7
49 | CCc1nn(CCCN2CCN(c3cccc(Cl)c3)CC2)c(=O)n1CCOc1ccccc1 [NEFAZODONE] | 15 | 8 | 1.9
50 | COc1cc2nc(N3CCN(C(=O)C4COc5ccccc5O4)CC3)nc(N)c2cc1OC (stereo not given) [DOXAZOSIN] | 27 | 12 | 2.3
